Counter-ions that a name gives are not always drawn.
Experiments:
[1] = tested on: isolation-induced aggressive behavior; experiment: Isolation-Induced Aggression in Mice; assay type: in vivo, Male Balb/c mice; conditions: oral, Table II discussion
Protocol: Male Balb/c mice (Charles River) were used. […] Isolated mice failing to consistently attack an intruder were eliminated from the colony. Drug testing was carried out by treating the isolated mice with test drugs or standards. Fifteen minutes after dosing with test drugs by the oral route, one isolated mouse was removed from its home cage and placed in the home cage of another isolate. Scoring was a yes or no response for each pair. A maximum of 3 minutes was allowed for an attack and the pair was separated immediately upon an attack. Selection of home cage and intruder mice was randomized for each test. Mice were treated and tested twice a week with at least a 2 day washout period between treatments.

[2] = tested on: PCP-induced turning behavior; experiment: PCP-induced turning behavior in rats; assay type: in vivo, Male Sprague-Dawley rats; conditions: p.o., Table III discussion
Protocol: Male Sprague-Dawley rats (CD/CR, Charles River), weighing 190-290 g, were used for surgery. In order to spare […] neurons, rats were injected with 25 mg/kg imipramine i.p. 30 minutes before surgery. The rats were anesthetized with a 1:1.2 ratio mixture of Xylazine:Ketamine given 0.1 mL/100 g body weight i.m. A Ringers-Wydaze (100:0.01) solution was given to prevent dehydration. Dopamine was depleted in the right striatum by injecting the neurotoxin 6-hydroxydopamine (6-OHDA) into the substantia nigra of the right cerebral hemisphere. Five mg of 6-OHDA was dissolved in 5 mL of a 0.04% ascorbic acid solution which had been deoxygenated with nitrogen. Five μL of the 6-OHDA solution was injected into the substantia nigra through a 26 gauge needle over a five minute period. […]
Rotation rate and direction were determined with Coulbourn Instruments Rotometry Monitors. Clockwise and counter clockwise rotations were recorded at 30 and 60 minute intervals. […]
The data were analyzed with an analysis of variance statistical test and individual comparisons of each dose of test drug to control were made with Dunnett's multiple range test. The ED50 was calculated with a Litchfield and Wilcoxon test using percent of control values.

catalepsy = experiment: Induction of catalepsy; assay type: in vivo, Male CD rats; conditions: rats, oral; Table III discussion
Protocol: Male CD rats (Charles River) weighing 250-300 g were treated with test drugs and standards by the oral route and tested for the presence of catalepsy 30 minute, 60 minute, and 90 minute after treatment. To test for catalepsy, each rat is placed with its front paws over a 10 cm high horizontal bar. The intensity of catalepsy is measured by the length of time it takes the animal to move both forelegs to the table. A time of 20 seconds is considered maximal catalepsy.

Compound | inhibiting the isolation-induced aggressive behavior, in words [1] | inhibiting PCP-induced turning behavior, in words [2] | producing catalepsy, in words (catalepsy)
Fc1ccc(OCC2CCN(CC3CC3)CC2)cc1 [Example 1, 1-(Cyclopropylmethyl)-4-(4-fluorophenoxymethyl)piperidine] | potent activities |  | 
O=C(CC1CCN(CC2CC2)CC1)c1ccc(F)cc1 [Example 504, 1-(Cyclopropylmethyl)-4-2'-(4"-Fluorophenyl)-2-oxoethyl)-piperidine, hydrobromide salt] |  | potent activity | does not produce catalepsy
O=C(CCCN1CCC(O)(c2ccc(Cl)cc2)CC1)c1ccc(F)cc1 [Haloperidol] | potent activities | potent activity | very potent in producing catalepsy
